# Data reported in patent US8470776B2, “Conjugates of disorazoles and their derivatives with cell-binding molecules, novel disorazole derivatives, processes of manufacturing and uses thereof” (Aeterna Zentaris GmbH, priority 2006, dated 2013).
# Assays:
# [1] = test system: GnRH receptor positive, human ovarian carcinoma cell line OVCAR-3; test: OVCAR-3 tumors in nude mice, single i.v. dose; format: in vivo, CD 1 nu/nu nude mice; settings: for Average tumor size day 18: once on day 0, tail vein; for Average tumor size day 0: tail vein, day 0 (baseline before dosing)
# Method: 30 CD 1 nu/nu nude mice were inoculated subcutaneously with the GnRH receptor positive, human ovarian carcinoma cell line OVCAR-3 (5 million cells per animal). The experiment was started after formation of solid tumors. 5 animals per dose group were used.
# On day 0 of the experiment, the individual tumor volume was determined by palpation and set to 100%. Test compounds were administered subsequently on day 0 of the experiment by injection into the tail vein of the test animals.
# A standard volume of 10 ml of 0.9% saline per kg (200 μl per 20 g mouse) containing the test compound in the required concentration was administered once only on day 0 of the experiment.
# The tumor size was determined again by palpation on day 18 of the experiment.
# In the case of appearance of additional tumors, the volumes were added.
# [2] = test system: human glioblastoma cell line SF-268; test: cells; format: cell-based; settings: for IC50 SF-268: XTT, 45 h incubation
# From the text: (§1) Selected compounds of the invention were investigated for their antiproliferative activity in a proliferation test on established tumor cell lines.
# (§2) The test used determines the cellular dehydrogenase activity and makes possible a determination of the cell vitality and indirectly the cell count.
# (§3) The cell lines used are the human cervical carcinoma cell line KB/HeLa (ATCC CCL17), the ovarian adenocarcinoma cell line SKOV-3 (ATCC HTB77), the human glioblastoma cell line SF-268 (NCI-503138) and the lung carcinoma cell line NCI-H460 (NCI-503473). In addition, for the investigation of the cell cycle-specific action of the compounds of the invention, an RKOp27 cell system was used (Schmidt M et al. Oncogene 2000, 19(20): 2423-2429). RKO is a human colon carcinoma cell line (ATCC CRL-2577), in which the cell cycle inhibitor p27^kip1 induced by means of the ecdysone expression system is expressed and can be led to a cell cycle arrest specifically in […]. A nonspecifically acting substance inhibits the proliferation independently of whether the RKO cell is or is not arrested in G1 or G2. Cell cycle-specific substances such as, for example, tubulin inhibitors are, however, only cytotoxic if cells are not arrested and the cell cycle is passed through.
# (§4) The adherently growing tumor cell lines KB/HeLa, SKOV-3, SF-268 and NCI-H460 were cultured under standard conditions in an incubator at 37° C., 5% CO2 and 95% atmospheric humidity. On experimental day 1, the cells are detached using trypsin/EDTA and pelleted by centrifugation. Subsequently, the cell pellet is resuspended in the respective culture medium at the corresponding cell count and reacted in a 96-well microtiter plate. The plates are then cultured overnight in the incubator. The test substances are prepared as 1 mg/ml stock solutions in DMSO and diluted to the appropriate concentrations on experimental day 2 using culture medium. The substances in culture medium are then added to the cells and incubated in the incubator for 45 h. As a control, cells which are not treated with test substance are used. For the XTT assay, 1 mg/ml of XTT (sodium 3′-[1-(phenylaminocarbonyl)-3,4-tetrazolium]-bis(4-methoxy-6-nitro)benzenesulfonic acid) is dissolved in RPMI-1640 medium without Phenol Red. Additionally, a 0.383 mg/ml PMS (N-methyldibenzopyrazine methylsulfate) solution in phosphate-buffered saline solution (PBS) is prepared. On experimental day 4, 75 μl/well of XTT-PMS mixture is pipetted onto the cell plates which in the meantime have been incubated with the test substances for 45 h. For this, shortly before use, the XTT solution is mixed with the PMS solution in the ratio 50:1 (vol:vol). The cell plates are then incubated in the incubator for a further 3 h and the optical density (OD490 nm) is determined in a photometer. By means of the OD490 nm determined, the percentage inhibition is calculated relative to the control and plotted semilogarithmically in the form of a concentration-action curve. The IC50 is calculated by means of a regression analysis from the concentration-action curve using the program Graphpad Prism.
# [3] = test system: human cervical carcinoma cell line KB/HeLa; test: cells; format: cell-based; settings: for IC50 KB/HELA: XTT, 45 h incubation
# From the text: as §1, §2, §3, §4
# [4] = test system: lung carcinoma cell line NCI-H460; test: cells; format: cell-based, human; settings: for IC50 NCI-H460: XTT, 45 h incubation
# From the text: as §1, §2, §3, §4
# [5] = test system: ovarian adenocarcinoma cell line SKOV-3; test: cells; format: cell-based, human; settings: for IC50 SKOV-3: XTT, 45 h incubation
# From the text: as §1, §2, §3, §4
# [6] = test system: hGnRH-R negative cell line LTK−; test: GnRH-receptor dependent proliferation assay, LTK-; format: cell-based; settings: 30 min exposure, vital cells vs untreated control = 100%
# Method: (§5) The dose-dependent receptor-mediated inhibition of cell proliferation of selected compounds of the invention was investigated.
# (§6) To study these effects a human GnRH receptor (hGnRH-R) positive cell line (5C6; Beckers et al., Eur. J. Biochem. 1995, 231: 535-543) and an hGnRH-R negative cell line (LTK^−; ECACC No. 85011432) was used.
# (§7) Respective cells were exposed to 1 mL culture medium in 24 well multi-titer-plates (MTPs) with a cell number of 15000 cells per well. The cell number is adjusted in such a way that after 5 days of testing the untreated control cells are still in the exponential growth phase.
# (§8) Test compounds are given to the cultured cells after 4 hours of initial growth (adherence) in a volume of 100 μL to yield the final concentrations given in table 2.
# (§9) After 30 min of incubation at 37° C. the entire culture medium is sucked off and the cells are washed twice with culture medium without test compounds. After the washing the cells are placed into an incubator (at 37° C., 5% CO2 and 95% atmospheric humidity) and incubated for further 4 days.
# (§10) For the determination of the cell number after incubation the cells are detached using trypsin/EDTA and centrifuged. The number of vital cells and the total cell number are counted using a Vi-Cell Analyzer (Beckman Coulter).
# (§11) The number of vital cells is analyzed in comparison with untreated control cells (=100%). Only cell groups (respective wells) are considered of which the total cell viability is more than 90%, i.e. inhibition of cell proliferation by unspecific toxicity can be excluded.
# (§12) The proliferation status of untreated control cells after 96 hours is set to 100%.
# [7] = test system: human GnRH receptor (hGnRH-R) positive cell line 5C6; test: GnRH-receptor dependent proliferation assay, 5C6; format: cell-based; settings: 30 min exposure, vital cells vs untreated control = 100%
# Method: as §5, §6, §7, §8, §9, §10, §11, §12
# [8] = test system: RKOp27 cells (human colon carcinoma cell line RKO), p27kip1 induced; test: cells; format: cell-based; settings: for IC50 RKOp27 induced: p27kip1 induced with 3 μM muristerone A, XTT, 45 h
# From the text: as §3, §4
# (§13) The assay is carried out in 96-well plates. […] By comparison of the activity on induced and noninduced cells, conclusions on the mechanism of action (cell cycle specificity) of the therapeutics can be drawn. […] cells are inoculated in approximately three-fold higher cell count, since division no longer takes place during the assay in comparison with uninduced cells (20000 cells/well induced, 6250 cells/well not induced). The controls are untreated cells (+/−induction). The induction is carried out with 3 μM muristerone A. On the 1st day, the cells are exposed (+/−muristerone A) and incubated at 37° C. for 24 h. On day 2, the test substance is added (control DMSO) and incubation is continued at 37° C. for a further 45 h before a standard XTT assay is carried out.
# [9] = test system: RKOp27 cells (human colon carcinoma cell line RKO), p27kip1 not induced; test: cells; format: cell-based; settings: for IC50 RKOp27: without expression of p27kip1, XTT, 45 h
# From the text: as §3, §4, §13
# cell models = settings: reported in literature; cited from earlier work
# mammalian cells = settings: Elnakady et al. 2004; cited from earlier work
# [10] = test system: various human tumor cell lines; settings: nano- and picomolar concentrations; WO 2004/024149; cited from earlier work
# [11] = test system: paclitaxel- and vindesine-resistant cell lines; settings: WO 2004/024149; cited from earlier work
molecule,measurement,setting,value
"C/C=C/C(O)C(C)(C(=O)OC)C1C\C=C/C=C/C=C/c2nc(co2)C(=O)OC(C(C)(C(=O)OC)C(/C=C/C)OC(=O)CCC(=O)NCCCC[C@H](NC(=O)[C@H](Cc2ccc(O)cc2)NC(=O)[C@H](CO)NC(=O)[C@H](Cc2c[nH]c3ccccc23)NC(=O)[C@H](Cc2cnc[nH]2)NC(=O)[C@@H]2CCC(=O)N2)C(=O)N[C@@H](CC(C)C)C(=O)N[C@@H](CCCNC(=N)N)C(=O)N2CCC[C@H]2C(=O)NCC(N)=O)C\C=C/C=C/C=C/c2nc(co2)C(=O)O1 (stereo partly drawn) [compound 16, Disorazole Z Mono Hemi Succinyl [D-Lys^6]LHRH]",Average tumor size day 18,"[1]; 0.1 mg/kg = 43 nmol/kg, day 18",76
same,Average tumor size day 0,[1]; 0.1 mg/kg = 43 nmol/kg,79
same,Average tumor size day 18,"[1]; 0.5 mg/kg = 215 nmol/kg, day 18",40
same,Average tumor size day 0,[1]; 0.5 mg/kg = 215 nmol/kg,74
same,IC50 SF-268,[2],17.8 ng/mL
same,IC50 KB/HELA,[3],18.92 ng/mL
same,IC50 NCI-H460,[4],9.235 ng/mL
same,IC50 SKOV-3,[5],7.683 ng/mL
same,"proliferation status after 96 hours, cell line LTK−, 0.1 nM",[6]; 0.1 nM,101.8%
same,"proliferation status after 96 hours, cell line LTK−, 1 nM",[6]; 1 nM,105.8%
same,"proliferation status after 96 hours, cell line LTK−, 10 nM",[6]; 10 nM,103.4%
same,"proliferation status after 96 hours, cell line LTK−, 100 nM",[6]; 100 nM,61.7%
same,"proliferation status after 96 hours, cell line 5C6, 0.1 nM",[7]; 0.1 nM,83.8%
same,"proliferation status after 96 hours, cell line 5C6, 1 nM",[7]; 1 nM,80.9%
same,"proliferation status after 96 hours, cell line 5C6, 10 nM",[7]; 10 nM,54.1%
same,"proliferation status after 96 hours, cell line 5C6, 100 nM",[7]; 100 nM,21.9%
same,IC50 RKOp27 induced,[8],>3160 ng/mL
same,IC50 RKOp27,[9],5.18 ng/mL
"C/C=C/[C@H](O)C(C)(C)[C@@H]1C\C=C/C=C\C=C\[C@H](OC)Cc2nc(co2)C(=O)O[C@H](C(C)(C)[C@@H](O)/C=C/C)C/C=C\[C@H]2O[C@H]2/C=C/C=C\c2nc(co2)C(=O)O1 [disorazol A1, disorazole A1, reference compound]",IC50 SF-268,[2],0.125 ng/mL
same,IC50 KB/HELA,[3],0.049 ng/mL
same,antiproliferative action in cell models,cell models,possesses an antiproliferative action
same,IC50 NCI-H460,[4],0.022 ng/mL
same,IC50 SKOV-3,[5],0.027 ng/mL
same,IC50 RKOp27 induced,[8],>3160 ng/mL
same,IC50 RKOp27,[9],0.049 ng/mL
same,induction of apoptosis in mammalian cells,mammalian cells,induces apoptosis
"C/C=C/C(O)C(C)(C)C1C/C=C\C2OC2C=CC(OC)Cc2nc(co2)C(=O)OC(C(C)(C)C(O)/C=C/C)C/C=C\C2OC2/C=C\C=Cc2nc(co2)C(=O)O1 (centres unmarked) [disorazol E1, disorazole E1, reference compound]",cytotoxic action on various human tumor cell lines,[10],possess cytotoxic action
same,IC50 SF-268,[2],0.474 ng/mL
same,IC50 KB/HELA,[3],0.17 ng/mL
same,IC50 NCI-H460,[4],0.065 ng/mL
same,IC50 SKOV-3,[5],0.074 ng/mL
same,IC50 RKOp27 induced,[8],>3160 ng/mL
same,IC50 RKOp27,[9],0.17 ng/mL
same,activity against paclitaxel- and vindesine-resistant cell lines,[11],active
"C/C=C/C(O)C(C)(C(=O)OC)C1C\C=C/C=C/C=C/c2nc(co2)C(=O)OC(C(C)(C(=O)OC)C(O)/C=C/C)C\C=C/C=C/C=C/c2nc(co2)C(=O)O1 (centres unmarked) [disorazol Z, disorazole Z, reference compound]",Average tumor size day 18,"[1]; 0.16 mg/kg = 215 nmol/kg, day 18",146
same,Average tumor size day 0,[1]; 0.16 mg/kg = 215 nmol/kg,92
same,suppression of tumor growth (in words),"[1]; OVCAR-3 tumors, single i.v. dose, day 18",moderate suppression of tumor growth
same,IC50,"[2]; Homo sapiens, SF-268, 45 h, read-out: IC50 SF-268",1.28 ng/mL
same,IC50,"[3]; Homo sapiens, HeLa, 45 h, read-out: IC50 KB/HELA",1.01 ng/mL
same,IC50,"[4]; Homo sapiens, NCI-H460, 45 h, read-out: IC50 NCI-H460",0.67 ng/mL
same,IC50,"[5]; Homo sapiens, SK-OV-3, 45 h, read-out: IC50 SKOV-3",0.504 ng/mL
same,IC50,"[8]; Homo sapiens, RKOp27, 45 h, read-out: IC50 RKOp27 induced",> 3160 ng/mL
same,IC50,"[9]; Homo sapiens, RKOp27, 45 h, read-out: IC50 RKOp27",0.659 ng/mL
disorazole D1,cytotoxic action on various human tumor cell lines,[10],possess cytotoxic action
